This assay addresses Nucleotide-binding oligomerization domain-containing protein 2 (Homo sapiens, UniProt Q9HC29). Nature of the assay: Inhibition of MDP-induced human NOD2 signaling expressed in HEK-Blue cells at 10 uM preincubated for 3 hrs followed by MDP-stimulation for 20 hrs by spectrophotometry based SEAP reporter gene assay relative to control. In kind it is cell-based. (In a reporter assay the amount or activity of a reporter protein is the signal.)
Nucleotide-binding oligomerization domain-containing protein 2, sequence (Q9HC29 whole entry, the tested form may be a part): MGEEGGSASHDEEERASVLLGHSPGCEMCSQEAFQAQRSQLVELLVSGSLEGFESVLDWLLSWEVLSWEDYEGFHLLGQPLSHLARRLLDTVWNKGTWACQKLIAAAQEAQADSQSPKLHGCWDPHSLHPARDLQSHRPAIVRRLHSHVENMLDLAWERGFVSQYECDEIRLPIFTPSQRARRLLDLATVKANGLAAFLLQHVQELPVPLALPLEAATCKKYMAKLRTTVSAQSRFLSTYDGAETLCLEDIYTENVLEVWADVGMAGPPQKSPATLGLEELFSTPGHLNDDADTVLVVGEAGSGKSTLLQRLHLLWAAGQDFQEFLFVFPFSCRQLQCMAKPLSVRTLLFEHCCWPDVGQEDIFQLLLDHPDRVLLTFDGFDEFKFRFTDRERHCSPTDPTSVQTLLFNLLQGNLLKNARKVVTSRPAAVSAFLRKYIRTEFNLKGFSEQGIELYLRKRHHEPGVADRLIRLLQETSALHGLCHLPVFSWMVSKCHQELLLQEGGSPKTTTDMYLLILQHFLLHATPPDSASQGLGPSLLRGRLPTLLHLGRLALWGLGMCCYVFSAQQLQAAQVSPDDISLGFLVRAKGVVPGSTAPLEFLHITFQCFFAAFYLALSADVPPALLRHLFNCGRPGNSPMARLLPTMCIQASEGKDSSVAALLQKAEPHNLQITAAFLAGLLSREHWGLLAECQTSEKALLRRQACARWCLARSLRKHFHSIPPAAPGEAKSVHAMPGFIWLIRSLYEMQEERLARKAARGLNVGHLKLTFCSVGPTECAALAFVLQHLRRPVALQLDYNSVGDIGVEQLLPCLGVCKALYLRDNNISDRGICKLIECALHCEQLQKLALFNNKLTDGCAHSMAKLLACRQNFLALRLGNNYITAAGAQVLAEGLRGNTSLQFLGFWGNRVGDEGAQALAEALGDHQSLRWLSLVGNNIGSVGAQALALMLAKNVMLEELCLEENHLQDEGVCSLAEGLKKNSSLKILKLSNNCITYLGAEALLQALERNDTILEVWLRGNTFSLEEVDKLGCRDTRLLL
In general, inhibition refers to the change of the read-out against control, counted positive when it falls. Take `CC(=O)O[C@@]12CO[C@@H]1C[C@H](O)[C@@]1(C)C(=O)[C@H](OCCC(=O)NCCCC[C@H](NC(=O)CC[C@@H](NC(=O)[C@H](C)NC(=O)/C=C/c3ccc(Cl)cc3F)C(N)=O)C(N)=O)C3=C(C)[C@@H](O)C[C@@](O)([C@@H](OC(=O)c4ccccc4)[C@H]21)C3(C)C`: the inhibition worked out at 22%.
Take `CC(=O)O[C@@]12CO[C@@H]1C[C@H](O)[C@@]1(C)C(=O)[C@H](O)C3=C(C)[C@@H](OC(=O)[C@H](OCCC(=O)NCCCC[C@H](NC(=O)CC[C@@H](NC(=O)[C@H](C)NC(=O)/C=C/c4ccc(O)cc4)C(N)=O)C(=O)O)[C@@H](NC(=O)C(C)(C)C)c4ccccc4)C[C@@](O)([C@@H](OC(=O)c4ccccc4)[C@H]21)C3(C)C`: the inhibition came to 23%.
For `CC(=O)O[C@H]1C(=O)[C@@]2(C)[C@H]([C@H](OC(=O)c3ccccc3)[C@]3(O)C[C@H](OC(=O)[C@H](OCCC(=O)NCCCC[C@H](NC(=O)CC[C@@H](NC(=O)[C@H](C)NC(=O)/C=C/c4ccc(F)cc4)C(N)=O)C(=O)O)[C@@H](NC(=O)c4ccccc4)c4ccccc4)C(C)=C1C3(C)C)[C@]1(OC(C)=O)CO[C@@H]1C[C@@H]2O`, the inhibition is 27%.
With `CC(=O)O[C@@]12CO[C@@H]1C[C@H](O)[C@@]1(C)C(=O)[C@H](O)C3=C(C)[C@@H](OC(=O)[C@H](OCCC(=O)NCCCC[C@H](NC(=O)CC[C@@H](NC(=O)[C@H](C)NC(=O)/C=C/c4cccs4)C(N)=O)C(=O)O)[C@@H](NC(=O)C(C)(C)C)c4ccccc4)C[C@@](O)([C@@H](OC(=O)c4ccccc4)[C@H]21)C3(C)C` the figure was 26%; with `CC(=O)O[C@H]1C(=O)[C@]2(C)[C@@H](OCCC(=O)NCCCC[C@H](NC(=O)CC[C@@H](NC(=O)[C@H](C)NC(=O)/C=C/c3ccc(Cl)cc3F)C(N)=O)C(N)=O)C[C@H]3OC[C@@]3(OC(C)=O)[C@H]2[C@H](OC(=O)c2ccccc2)[C@]2(O)C[C@H](O)C(C)=C1C2(C)C`, 9%; with `CC(=O)O[C@H]1C(=O)[C@@]2(C)[C@H]([C@H](OC(=O)c3ccccc3)[C@]3(O)C[C@H](OC(=O)[C@H](OCCC(=O)NCCCC[C@H](NC(=O)CC[C@@H](NC(=O)[C@H](C)NC(=O)/C=C/c4ccc(Cl)cc4)C(N)=O)C(=O)O)[C@@H](NC(=O)c4ccccc4)c4ccccc4)C(C)=C1C3(C)C)[C@]1(OC(C)=O)CO[C@@H]1C[C@@H]2O`, 44%.
`CC(=O)O[C@H]1C(=O)[C@@]2(C)[C@H]([C@H](OC(=O)c3ccccc3)[C@]3(O)C[C@H](OC(=O)[C@H](OCCC(=O)NCCCC[C@H](NC(=O)CC[C@@H](NC(=O)[C@H](C)NC(=O)/C=C/c4ccc(F)c(F)c4)C(N)=O)C(=O)O)[C@@H](NC(=O)c4ccccc4)c4ccccc4)C(C)=C1C3(C)C)[C@]1(OC(C)=O)CO[C@@H]1C[C@@H]2O`: the inhibition amounted to 29%.
On to `CC(=O)O[C@H]1C(=O)[C@@]2(C)[C@H]([C@H](OC(=O)c3ccccc3)[C@]3(O)C[C@H](OC(=O)[C@H](OCCC(=O)NCCCC[C@H](NC(=O)CC[C@@H](NC(=O)[C@H](C)NC(=O)/C=C/c4ccc(C)cc4)C(N)=O)C(=O)O)[C@@H](NC(=O)c4ccccc4)c4ccccc4)C(C)=C1C3(C)C)[C@]1(OC(C)=O)CO[C@@H]1C[C@@H]2O`, for which the inhibition stood at 41%.
`CC(=O)O[C@@]12CO[C@@H]1C[C@H](O)[C@@]1(C)C(=O)[C@H](O)C3=C(C)[C@@H](OC(=O)[C@H](OCCC(=O)NCCCC[C@H](NC(=O)CC[C@@H](NC(=O)[C@H](C)NC(=O)/C=C/c4ccc(F)c(F)c4)C(N)=O)C(=O)O)[C@@H](NC(=O)C(C)(C)C)c4ccccc4)C[C@@](O)([C@@H](OC(=O)c4ccccc4)[C@H]21)C3(C)C`: the inhibition came out at 24%.
As to `CC(=O)O[C@@]12CO[C@@H]1C[C@H](O)[C@@]1(C)C(=O)[C@H](O)C3=C(C)[C@@H](OC(=O)[C@H](OCCC(=O)NCCCC[C@H](NC(=O)CC[C@@H](NC(=O)[C@H](C)NC(=O)/C=C/c4ccc(C)cc4)C(N)=O)C(=O)O)[C@@H](NC(=O)C(C)(C)C)c4ccccc4)C[C@@](O)([C@@H](OC(=O)c4ccccc4)[C@H]21)C3(C)C`, the inhibition was 25%.
Consider `CC(=O)O[C@@]12CO[C@@H]1C[C@H](O)[C@@]1(C)C(=O)[C@H](O)C3=C(C)[C@@H](OC(=O)[C@H](OCCC(=O)NCCCC[C@H](NC(=O)CC[C@@H](NC(=O)[C@H](C)NC(=O)c4ccc5ccccc5n4)C(N)=O)C(=O)O)[C@@H](NC(=O)C(C)(C)C)c4ccccc4)C[C@@](O)([C@@H](OC(=O)c4ccccc4)[C@H]21)C3(C)C`, for which the inhibition was 28%.
As to `CC(=O)O[C@@]12CO[C@@H]1C[C@H](O)[C@@]1(C)C(=O)[C@H](O)C3=C(C)[C@@H](OC(=O)[C@H](OCCC(=O)NCCCC[C@H](NC(=O)CC[C@@H](NC(=O)[C@H](C)NC(=O)/C=C/c4ccc(F)cc4Cl)C(N)=O)C(N)=O)[C@@H](NC(=O)C(C)(C)C)c4ccccc4)C[C@@](O)([C@@H](OC(=O)c4ccccc4)[C@H]21)C3(C)C`, the inhibition worked out at 58%.
Take `COc1cccc(/C=C/C(=O)N[C@@H](C)C(=O)N[C@H](CCC(=O)N[C@@H](CCCCNC(=O)CCO[C@@H](C(=O)O[C@H]2C[C@@]3(O)[C@@H](OC(=O)c4ccccc4)[C@@H]4[C@]5(OC(C)=O)CO[C@@H]5C[C@H](O)[C@@]4(C)C(=O)[C@H](OC(C)=O)C(=C2C)C3(C)C)[C@@H](NC(=O)c2ccccc2)c2ccccc2)C(=O)O)C(N)=O)c1`: the inhibition was 45%.
Then `CC(=O)O[C@@]12CO[C@@H]1C[C@H](O)[C@@]1(C)C(=O)[C@H](O)C3=C(C)[C@@H](OC(=O)[C@H](OCCC(=O)NCCCC[C@H](NC(=O)CC[C@@H](NC(=O)[C@H](C)NC(=O)/C=C/c4ccc(Cl)cc4F)C(N)=O)C(=O)O)[C@@H](NC(=O)C(C)(C)C)c4ccccc4)C[C@@](O)([C@@H](OC(=O)c4ccccc4)[C@H]21)C3(C)C`, with 32%.
Take `CCCCOC(=O)[C@H](OCCC(=O)NCCCC[C@H](NC(=O)CC[C@@H](NC(=O)[C@H](C)NC(=O)/C=C/c1ccc(Cl)cc1F)C(N)=O)C(N)=O)[C@@H](NC(=O)c1ccccc1)c1ccccc1`: the inhibition is -6%.
As to `CC(=O)O[C@H]1C(=O)[C@@]2(C)[C@H]([C@H](OC(=O)c3ccccc3)[C@]3(O)C[C@H](OC(=O)[C@H](OCCC(=O)NCCCC[C@H](NC(=O)CC[C@@H](NC(=O)[C@H](C)NC(=O)/C=C/c4ccc(F)cc4F)C(N)=O)C(=O)O)[C@@H](NC(=O)c4ccccc4)c4ccccc4)C(C)=C1C3(C)C)[C@]1(OC(C)=O)CO[C@@H]1C[C@@H]2O`, the inhibition came to 21%.
Take `CC(=O)O[C@@]12CO[C@@H]1C[C@H](O)[C@@]1(C)C(=O)[C@H](O)C3=C(C)[C@@H](OC(=O)[C@H](OCCC(=O)NCCCC[C@H](NC(=O)CC[C@@H](NC(=O)[C@H](C)NC(=O)/C=C/c4ccc(F)cc4F)C(N)=O)C(=O)O)[C@@H](NC(=O)C(C)(C)C)c4ccccc4)C[C@@](O)([C@@H](OC(=O)c4ccccc4)[C@H]21)C3(C)C`: the inhibition worked out at 28%.
Regarding `CC(=O)O[C@@]12CO[C@@H]1C[C@H](O)[C@@]1(C)C(=O)[C@H](O)C3=C(C)[C@@H](OC(=O)[C@H](OCCC(=O)NCCCC[C@H](NC(=O)CC[C@@H](NC(=O)[C@H](C)NC(=O)COc4cccc5ccccc45)C(N)=O)C(=O)O)[C@@H](NC(=O)C(C)(C)C)c4ccccc4)C[C@@](O)([C@@H](OC(=O)c4ccccc4)[C@H]21)C3(C)C`, the inhibition worked out at 34%.
As for `CC(=O)O[C@@]12CO[C@@H]1C[C@H](O)[C@@]1(C)C(=O)[C@H](O)C3=C(C)[C@@H](OC(=O)[C@H](OCCC(=O)NCCCC[C@H](NC(=O)CC[C@@H](NC(=O)[C@H](C)NC(=O)/C=C/c4cccc(F)c4)C(N)=O)C(=O)O)[C@@H](NC(=O)C(C)(C)C)c4ccccc4)C[C@@](O)([C@@H](OC(=O)c4ccccc4)[C@H]21)C3(C)C`, the inhibition came to 30%.
`COC(=O)[C@H](OCCC(=O)NCCCC[C@H](NC(=O)CC[C@@H](NC(=O)[C@H](C)NC(=O)/C=C/c1ccc(Cl)cc1F)C(N)=O)C(N)=O)[C@@H](NC(=O)c1ccccc1)c1ccccc1`: the inhibition is -7%.
As for `CC(=O)O[C@@]12CO[C@@H]1C[C@H](O)[C@@]1(C)C(=O)[C@H](O)C3=C(C)[C@@H](OC(=O)[C@H](OCCC(=O)NCCCC[C@H](NC(=O)CC[C@@H](NC(=O)[C@H](C)NC(=O)c4ccc(Cl)cc4)C(N)=O)C(=O)O)[C@@H](NC(=O)C(C)(C)C)c4ccccc4)C[C@@](O)([C@@H](OC(=O)c4ccccc4)[C@H]21)C3(C)C`, the inhibition stood at 14%.
On to `CC(=O)O[C@@]12CO[C@@H]1C[C@H](O)[C@@]1(C)C(=O)[C@H](O)C3=C(C)[C@@H](OC(=O)[C@H](OCCC(=O)NCCCC[C@H](NC(=O)CC[C@@H](NC(=O)[C@H](C)NC(=O)c4ccccc4)C(N)=O)C(=O)O)[C@@H](NC(=O)C(C)(C)C)c4ccccc4)C[C@@](O)([C@@H](OC(=O)c4ccccc4)[C@H]21)C3(C)C`, for which the inhibition was found to be 20%.
As to `CC(=O)O[C@H]1C(=O)[C@@]2(C)[C@H]([C@H](OC(=O)c3ccccc3)[C@]3(O)C[C@H](OC(=O)[C@H](OCCC(=O)NCCCC[C@H](NC(=O)CC[C@@H](NC(=O)[C@H](C)NC(=O)/C=C/c4ccc(Cl)cc4F)C(N)=O)C(=O)O)[C@@H](NC(=O)c4ccccc4)c4ccccc4)C(C)=C1C3(C)C)[C@]1(OC(C)=O)CO[C@@H]1C[C@@H]2O`, the inhibition amounted to 45%.
Take `CC(=O)O[C@@]12CO[C@@H]1C[C@H](O)[C@@]1(C)C(=O)[C@H](O)C3=C(C)[C@@H](OC(=O)[C@H](OCCC(=O)NCCCC[C@H](NC(=O)CC[C@@H](NC(=O)[C@H](C)NC(=O)/C=C/c4ccc(F)cc4)C(N)=O)C(=O)O)[C@@H](NC(=O)C(C)(C)C)c4ccccc4)C[C@@](O)([C@@H](OC(=O)c4ccccc4)[C@H]21)C3(C)C`: the inhibition was found to be 19%.
Consider `CC(=O)O[C@H]1C(=O)[C@@]2(C)[C@H]([C@H](OC(=O)c3ccccc3)[C@]3(O)C[C@H](OC(=O)[C@H](OCCC(=O)NCCCC[C@H](NC(=O)CC[C@@H](NC(=O)[C@H](C)NC(=O)/C=C/c4ccc(Br)cc4)C(N)=O)C(=O)O)[C@@H](NC(=O)c4ccccc4)c4ccccc4)C(C)=C1C3(C)C)[C@]1(OC(C)=O)CO[C@@H]1C[C@@H]2O`, for which the inhibition turned out to be 44%.
Then `CC(=O)O[C@H]1C(=O)[C@@]2(C)[C@H]([C@H](OC(=O)c3ccccc3)[C@]3(O)C[C@H](OCCC(=O)NCCCC[C@H](NC(=O)CC[C@@H](NC(=O)[C@H](C)NC(=O)/C=C/c4ccc(Cl)cc4F)C(N)=O)C(N)=O)C(C)=C1C3(C)C)[C@]1(OC(C)=O)CO[C@@H]1C[C@@H]2O`, with 6%.

For the origin of these results see ChEMBL document CHEMBL3992526, “Antagonizing NOD2 Signaling with Conjugates of Paclitaxel and Muramyl Dipeptide Derivatives Sensitizes Paclitaxel Therapy and Significantly Prevents Tumor Metastasis” (J Med Chem, 2017).
